What was measured:
Format in all cases: cell-based
[1] = tested on: Ent. cloacae (3), Pr. vulgaris (1), Pr. morganii (1), S. marcescen (1); test: In vitro MIC, serial two-fold agar dilution, primary evaluation Gn-II (Ent. cloacae, Pr. vulgaris, Pr. morganii, S. marcescens); settings: CBPC = 100%; geometric mean of MICs; Mueller-Hinton agar
Procedure: (§1) Minimun inhibitory concentrations (MIC) were determined by the serial two-fold agar dilution method using Steers' apparatus on Mueller-Hinton agar plate against 31 test organisms for the primary screening and also against 64 strains of Pseudomonas aeruginosa for the secondary evaluation. The results are shown in Table 1 in terms of relative activity with respect to the standard compound CBPC (carbenicillin) which was set at 100%. In each group the calculation was based on the geometric mean of the observed MICs.
GnII = Ent. cloacae (3), Pr. vulgaris (1), Pr. morganii (1), S. marcescen

Ps. aeruginosa = test: In vitro MIC, serial two-fold agar dilution, primary evaluation Ps (6 strains); settings: CBPC = 100%; geometric mean of MICs; Mueller-Hinton agar
Procedure: as §1
Ps. = Ps. aeruginosa (6).

S. aureus = test: In vitro MIC, serial two-fold agar dilution, primary evaluation Gp (S. aureus, 6 strains); settings: CBPC = 100%; geometric mean of MICs; Mueller-Hinton agar
Procedure: as §1
*GP = S. aureus (6 strains);

[2] = tested on: E. coli (9), Klebsiella sp. (2), Pr. mirabilis (1), Sal. enteritidis (1); test: In vitro MIC, serial two-fold agar dilution, primary evaluation Gn-I (E. coli, Klebsiella sp., Pr. mirabilis, Sal. enteritidis); settings: CBPC = 100%; geometric mean of MICs; Mueller-Hinton agar
Procedure: as §1
GnI = E. coli (9), Klebsiella sp. (2), Pr. mirabilis (1), Sal.

Pseudomonas aeruginosa = test: In vitro MIC, serial two-fold agar dilution, secondary evaluation against Pseudomonas aeruginosa strains; settings: CBPC = 100%; geometric mean of MICs; 61-64 strains
Procedure: as §1

SMILES	In vitro relative activity, primary evaluation Gn-II (6) [1] [%]	In vitro relative activity, primary evaluation Ps (6) (Ps. aeruginosa) [%]	In vitro relative activity, primary evaluation Gp (6) (S. aureus) [%]	In vitro relative activity, primary evaluation Gn-I (13) [2] [%]	In vitro relative activity, secondary, Pseudomonas aeruginosa (61-64) (Pseudomonas aeruginosa) [%]
O=C(O)CSc1ccc[n+](CC2=C(C(=O)[O-])N3C(=O)C(NC(=O)[C@H](NC(=O)c4cnc5cccnc5c4O)c4ccc(O)cc4)C3SC2)c1 (stereo partly drawn) [BB-S636, 7-[D-α-(4-Hydroxy-1,5-naphthyridine-3-carboxamido)-α-(4-hydroxyphenyl)acetamido]-3-(3-carboxymethylthiopyridinium)-methyl-3-cephem-4-carboxylate]	50	7070	71	242	
O=C(O)CSc1ccc[n+](CC2=C(C(=O)[O-])N3C(=O)C(NC(=O)[C@H](NC(=O)c4cnc5cccnc5c4O)c4ccc(O)c(O)c4)C3SC2)c1 (stereo partly drawn) [BB-S638, 7-[D-α-(4-Hydroxy-1,5-naphthyridine-3-carboxamido)-α-(3,4-dihydroxyphenyl)acetamido]-3-(3-carboxymethylthiopyridinium)-methyl-3-cephem-4-carboxylate]	8	2380	8	69	
O=C(O)CSc1cc[n+](CC2=C(C(=O)[O-])N3C(=O)C(NC(=O)[C@H](NC(=O)c4cnc5cccnc5c4O)c4ccc(O)c(O)c4)C3SC2)cc1 (stereo partly drawn) [BB-S639, 7-[D-α-(4-Hydroxy-1,5-naphthyridine-3-carboxamido)-α-(3,4-dihydroxyphenyl)acetamido]-3-(4-carboxymethylthiopyridinium)-methyl-3-cephem-4-carboxylate]	35	4310	20	242	
O=C(O)CSc1ccc[n+](CC2=C(C(=O)[O-])N3C(=O)C(NC(=O)[C@H](NC(=O)c4cnc5cccnc5c4O)c4ccc(O)c(Cl)c4)C3SC2)c1 (stereo partly drawn) [BB-S637, 7-[D-α-(4-Hydroxy-1,5-naphthyridine-3-carboxamido)-α-(3-chloro-4-hydroxyphenyl)acetamido]-3-(3-carboxymethylthiopyridinium)methyl-3-cephem-4-carboxylate]	25	3530	71	113	
O=C([O-])C1=C(C[n+]2ccc(C(=O)O)c(C(=O)O)c2)CSC2C(NC(=O)[C@H](NC(=O)c3cnc4cccnc4c3O)c3ccc(O)cc3)C(=O)N12 (stereo partly drawn) [BB-S586, 7-[D-α-(4-Hydroxy-1,5-naphthyridine-3-carboxamido)-α-(4-hydroxyphenyl)acetamido]-3-(3,4-dicarboxypyridinium)methyl-3-cephem-4-carboxylate]	11	362	6	88	351
